In patent publication EP4603105A1, “PHARMACEUTICAL COMPOSITION CONTAINING CYCLIC COMPOUND HAVING SELECTIVE KRAS INHIBITORY EFFECT AGAINST HRAS AND NRAS” (CHUGAI SEIYAKU KABUSHIKI KAISHA, priority 2022, dated 2024):
*1 amine or outer side, *2 acyl side, *3 side chain or, on linkers, in order; H or OH if unused. Where a SMILES comes first, the peptide text is derived from it. Bridges are numbered along the chain shown (N, C = ends). [ ]: non-standard residue; d: D form. The star is where a group is joined. hPhe(3,5-F2-4-CF3) = N[C@@H](CCc1cc(F)c(C(F)(F)F)c(F)c1)C(=O)O; hPhe(3-Cl-4-CF3) = N[C@@H](CCc1ccc(C(F)(F)F)c(Cl)c1)C(=O)O; NPrPhe(4-CF3) = CCCN[C@@H](Cc1ccc(C(F)(F)F)cc1)C(=O)O; X40 = Cc1ccc(C[C@@H](C(=O)[*:2])N(CC(C)C)[*:1])cc1; NPrPhe(4-Me) = CCCN[C@@H](Cc1ccc(C)cc1)C(=O)O; NMePhe(4-Me) = CN[C@@H](Cc1ccc(C)cc1)C(=O)O; NMeGly(cPent) = CN[C@H](C(=O)O)C1CCCC1; Pro(4,4-F2) = O=C(O)[C@@H]1CC(F)(F)CN1; αMeCha = C[C@](N)(CC1CCCCC1)C(=O)O; NMeD = CN[C@@H](CC(=O)O)C(=O)O; NMeL = CN[C@@H](CC(C)C)C(=O)O; Morpholide = C1CN(*)CCO1; NMeA = CN[C@@H](C)C(=O)O; Ac5c = NC1(C(=O)O)CCCC1; Aze = O=C(O)[C@@H]1CCN1; Ac4c = NC1(C(=O)O)CCC1; NBuGly = CCCCNCC(=O)O; NEtG = CCNCC(=O)O; Sar = CNCC(=O)O

What was measured:
[1] = target: GDP-bound NRAS wild-type protein (Homo sapiens, UniProt P01111); test: Binding to NRAS by surface plasmon resonance (SPR), KD and KD ratio to KRAS
GDP-bound NRAS wild-type protein, sequence (P01111 whole entry): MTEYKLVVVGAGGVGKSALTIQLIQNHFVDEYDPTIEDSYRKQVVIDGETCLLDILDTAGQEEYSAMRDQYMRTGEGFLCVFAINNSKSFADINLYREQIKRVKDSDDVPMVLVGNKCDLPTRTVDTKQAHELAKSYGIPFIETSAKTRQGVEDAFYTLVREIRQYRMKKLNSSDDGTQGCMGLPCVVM
Procedure: (§1) Surface plasmon resonance was used to analyze the binding affinity of compounds for KRAS, NRAS, and HRAS. The apparatus used was Biacore 8K, 8K+, or T200 (GE Healthcare), and the running buffer used was HBS (10 mM HEPES-NaOH, 150 mM NaCl, pH 7.4) containing 1 mM DTT, 10 mM MgCl2, 0.01% Tween 20, 10 µM GDP, and 4% DMSO.
(§2) Biotinylated Avi-tag fusion KRAS, NRAS, and HRAS proteins were expressed in E. coli BL21 (DE3) strains, and after cells were homogenized, they were purified using Streptavidin Mutein Matrix and Superdex 75. After purification, GDP-loaded KRAS, NRAS, and HRAS proteins were immobilized on the surface of Sensor Chip CAP (Cytiva) coated with Biotin CAPture Reagent in an immobilization amount of about 100 to 300 RU. Binding of each compound was evaluated by the Single Cycle Kinetics method, and a running buffer or a compound solution was added to the RAS protein non-immobilized surface and the immobilized surface to obtain a binding response. The flow rate was set to 100 µL/min, and in the compound-adding cycle, compound solutions having different concentrations were intermittently added for 75 seconds each, starting from a low concentration. […] In the blank cycle, a running buffer was intermittently added and not the compound solution. The Biotin CAPture Reagent and RAS proteins were immobilized for each cycle, and at the end of each cycle, the sensor chip was regenerated by the regeneration solution appended to the Biotin CAPture Kit (Cytiva). Measurement was carried out at 30°C.
(§3) The resulting sensorgram was subjected to curve fitting based on a 1:1 binding model on Biacore Insight Evaluation Software or T200 Evaluation Software, and thereby the dissociation constant KD of each compound with respect to KRAS, NRAS, and HRAS was determined. […] Blank indicates a compound from which the KD value with respect to NRAS or HRAS was not obtained.

HRAS wild-type protein = HRAS wild-type protein (Homo sapiens, UniProt P01112); test: Binding to HRAS by surface plasmon resonance (SPR), KD and KD ratio to KRAS
HRAS wild-type protein, sequence (P01112 whole entry): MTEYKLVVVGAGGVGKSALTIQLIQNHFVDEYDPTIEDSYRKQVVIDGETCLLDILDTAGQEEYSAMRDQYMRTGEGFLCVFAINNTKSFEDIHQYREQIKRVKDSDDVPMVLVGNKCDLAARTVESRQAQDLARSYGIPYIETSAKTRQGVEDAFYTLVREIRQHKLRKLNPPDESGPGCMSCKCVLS
Procedure: as §1, §2, §3

[2] = tested on: human lung cancer strain NCI-H441; format: cell-based
Method in brief: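 Signal came from […] measured per well once the reagent was added. Beforehand, cells were cultured at 37°C and 5% carbon dioxide on a compound series serially diluted in dimethyl sulfoxide.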

[3] = ratio of KD for GDP-bound NRAS wild-type protein to KD for KRAS
[4] = ratio of KD for HRAS wild-type protein to KD for KRAS
[5] = ratio of the KD value with respect to GDP-bound NRAS wild-type protein to the KD value with respect to KRAS
[6] = ratio of the KD value with respect to HRAS wild-type protein to the KD value with respect to KRAS

Compound	NRAS /KRAS ([1]; ratio of KD value for GDP-bound NRAS wild-type protein to KD value for KRAS (SPR))	HRAS /KRAS (HRAS wild-type protein; ratio of KD value for HRAS wild-type protein to KD value for KRAS (SPR))	IC50 [2] [nM]	NRAS /KRAS [1, 3]	HRAS /KRAS (HRAS wild-type protein; [4])	NRAS /KRAS [1, 5]	HRAS /KRAS (HRAS wild-type protein; [6])
CC[C@H](C)[C@@H]1NC(=O)[C@H](CC)N(C)C(=O)C[C@@H](C(=O)N(C)C)N(C)C(=O)[C@H](C2CCCC2)N(C)C(=O)C2(CCCC2)N(C)C(=O)[C@@H]2C[C@@H](C)CN2C(=O)[C@H](CCc2cc(F)c(C(F)(F)F)c(F)c2)NC(=O)CN(C)C(=O)[C@H](Cc2ccc(C)cc2)N2CC/C=C\C[C@@H](C2=O)N(C)C(=O)[C@@H]2CCCN2C1=O [PP1814]	A (a compound having 10 or more and less than 20 is denoted as A)	A (a compound having 10 or more and less than 20 is denoted as A)	26.2				
CCO[C@@H]1C[C@H]2C(=O)NC3(CC(C)(C)C3)C(=O)N(C)[C@@H](C(CC)CC)C(=O)N(C)[C@H](C(=O)N(C)C)CC(=O)N(C)[C@H]3CCCCCc4ccc(cc4)C[C@@H](C(=O)N(C)CC(=O)N[C@@H](CCc4ccc(C(F)(F)F)c(OC)c4)C(=O)N2C1)N1CC/C=C\C[C@@H](C1=O)N(C)C(=O)CN(C)C(=O)[C@H]([C@@H](C)CC)NC3=O [PP3035]			4.2	AA (a compound having 20 or more is denoted as AA)	A (a compound having 10 or more and less than 20 is denoted as A)		
CCCN1C(=O)CN(C)C(=O)CN(CC)C(=O)[C@H]([C@@H](C)CC)NC(=O)[C@H](CC(C)C)N(C)C(=O)C[C@@H](C(=O)N2CCOCC2)N(C)C(=O)[C@H](C2CCCC2)N(C)C(=O)C2(CCCC2)NC(=O)CN(C)C(=O)[C@H](CCc2ccc(C(F)(F)F)c(Cl)c2)NC(=O)CN(C)C(=O)[C@@H]1Cc1ccc(C(F)(F)F)cc1 [PP0300] ([NMeL]I[NEtG][Sar][NPrPhe(4-CF3)][Sar][hPhe(3-Cl-4-CF3)][Sar][Ac5c][NMeGly(cPent)][NMeD]-Morpholide; lactam N-11)			73.9	B (a compound having 3 or more and less than 10 is denoted as B)	C (A compound having a KD ratio of 0.1 or more and less than 3 is denoted as C)		
CC[C@H](C)[C@@H]1NC(=O)[C@H](CC)N(C)C(=O)C[C@@H](C)N(C)C(=O)[C@H](C2CCCC2)N(C)C(=O)C2(CCCC2)NC(=O)[C@@H]2CCCN2C(=O)[C@H](CCc2cc(F)c(C(F)(F)F)c(F)c2)NC(=O)CN(C)C(=O)[C@H](Cc2ccc(C(F)(F)F)cc2)N2CC/C=C\C[C@@H](C2=O)N(C)C(=O)CN(C)C1=O [PP1101]			68.4	B (a compound having 3 or more and less than 10 is denoted as B)	B (a compound having 3 or more and less than 10 is denoted as B)		
CCCCN1CC(=O)N(C)[C@@H](Cc2ccc(C)cc2)C(=O)N(C)CC(=O)N[C@@H](CCc2ccc(C(F)(F)F)c(Cl)c2)C(=O)N2CCC[C@H]2C(=O)NC2(CCCC2)C(=O)N(C)[C@@H](C2CCCC2)C(=O)N(C)[C@H](C(=O)N2CCOCC2)CC(=O)N(C)[C@@H](CC(C)C)C(=O)N[C@@H]([C@@H](C)CC)C(=O)N(C)CC1=O [PP0021] ([NMeL]I[Sar][NBuGly][NMePhe(4-Me)][Sar][hPhe(3-Cl-4-CF3)]P[Ac5c][NMeGly(cPent)][NMeD]-Morpholide; lactam N-11)			9.8	C (A compound having a KD ratio of 0.1 or more and less than 3 is denoted as C)	C (A compound having a KD ratio of 0.1 or more and less than 3 is denoted as C)		
CCCN1C(=O)[C@@H]2CCN2C(=O)[C@H](C)N(C)C(=O)[C@H]([C@@H](C)CC)NC(=O)[C@H](CC(C)C)N(C)C(=O)C[C@@H](C(=O)N(C)C)N(C)C(=O)[C@H](C2CCCC2)N(C)C(=O)C2(CCC2)NC(=O)[C@@H]2CC(F)(F)CN2C(=O)[C@H](CCc2ccc(C(F)(F)F)c(Cl)c2)NC(=O)CN(C)C(=O)[C@@H]1Cc1ccc(C(F)(F)F)cc1 [PP0437] ([NMeL]I[NMeA][Aze][NPrPhe(4-CF3)][Sar][hPhe(3-Cl-4-CF3)][Pro(4,4-F2)][Ac4c][NMeGly(cPent)][NMeD]-NMe2; lactam N-11)			1.2			C (A compound having a KD ratio of 0.1 or more and less than 3 is denoted as C)	B (a compound having 3 or more and less than 10 is denoted as B)
CCC[C@H]1C(=O)N[C@@H]([C@@H](C)CC)C(=O)N(C2CC2)CC(=O)N(C)[C@H]2C/C=C\CCN(C2=O)[C@@H](Cc2ccc(C)cc2)C(=O)N(C)CC(=O)N[C@@H](CCc2ccc(C(F)(F)F)c(OC)c2)C(=O)N2C[C@H](OCC)C[C@H]2C(=O)NC2(CC(C)(C)C2)C(=O)N(C)[C@@H](CC2CC2)C(=O)N(C)[C@H](C(=O)N(C)C)CC(=O)N1C [PP2803]			120	A (a compound having 10 or more and less than 20 is denoted as A)	A (a compound having 10 or more and less than 20 is denoted as A)		
CC[C@H](C)[C@@H]1NC(=O)[C@H](CC(C)C)N(C)C(=O)C[C@@H](C(=O)N2CCOCC2)N(C)C(=O)[C@H](C2CCCC2)N(C)C(=O)C2(CCCC2)NC(=O)[C@@H]2CCCN2C(=O)[C@H](CCc2ccc(C(F)(F)F)c(Cl)c2)NC(=O)CN(C)C(=O)[C@H](Cc2ccc(C)cc2)N(CC(C)C)C(=O)CN(C)C(=O)CN(C)C1=O [PP0063] ([NMeL]I[Sar][Sar][X40][Sar][hPhe(3-Cl-4-CF3)]P[Ac5c][NMeGly(cPent)][NMeD]-Morpholide; lactam N-11)			39.3	C (A compound having a KD ratio of 0.1 or more and less than 3 is denoted as C)	C (A compound having a KD ratio of 0.1 or more and less than 3 is denoted as C)		
CCCN1C(=O)CN(C)C(=O)CN(C)C(=O)[C@H]([C@@H](C)CC)NC(=O)[C@H](CC(C)C)N(C)C(=O)C[C@@H](C(=O)N2CCOCC2)N(C)C(=O)[C@H](C2CCCC2)N(C)C(=O)[C@](C)(CC2CCCCC2)NC(=O)[C@@H]2CCCN2C(=O)[C@H](CCc2cc(F)c(C(F)(F)F)c(F)c2)NC(=O)CN(C)C(=O)[C@@H]1Cc1ccc(C(F)(F)F)cc1 [PP0760] ([NMeL]I[Sar][Sar][NPrPhe(4-CF3)][Sar][hPhe(3,5-F2-4-CF3)]P[αMeCha][NMeGly(cPent)][NMeD]-Morpholide; lactam N-11)			310			B (a compound having 3 or more and less than 10 is denoted as B)	C (A compound having a KD ratio of 0.1 or more and less than 3 is denoted as C)
CCCN1C(=O)[C@@H]2CCN2C(=O)[C@H](C)N(C)C(=O)[C@H]([C@@H](C)CC)NC(=O)[C@H](CC(C)C)N(C)C(=O)C[C@@H](C(=O)N2CCOCC2)N(C)C(=O)[C@H](C2CCCC2)N(C)C(=O)C2(CCCC2)NC(=O)[C@@H]2CCCN2C(=O)[C@H](CCc2ccc(C(F)(F)F)c(Cl)c2)NC(=O)CN(CC)C(=O)[C@@H]1Cc1ccc(C)cc1 [PP0058] ([NMeL]I[NMeA][Aze][NPrPhe(4-Me)][NEtG][hPhe(3-Cl-4-CF3)]P[Ac5c][NMeGly(cPent)][NMeD]-Morpholide; lactam N-11)			25.8	C (A compound having a KD ratio of 0.1 or more and less than 3 is denoted as C)	C (A compound having a KD ratio of 0.1 or more and less than 3 is denoted as C)		
